Results: US7569695B2, “Dyes for the detection or quantification of desirable target molecules” (Enzo Life Sciences, Inc., priority 2005, dated 2009)

What was measured:
anti-sense C amplicon = experiment: Amplification of various amounts of target with fixed dye levels, 29 cycles (Example 37); assay type: biochemical; conditions: 1:1000 dilution of SYBR Green
Description: In the previous experiments, a fixed amount of target was amplified in the presence of varying level of dyes. The eventual use of these dyes is going to be with a fixed amount of dye and varying levels of targets. As such, an experiment was carried out using previously determined optimal levels of dyes and various amounts of input target (again using the anti-sense C as a model). • Dilution 1=1:100,000 • Dilution 2=1:1,000,000 • Dilution 3=1:10,000,000 • Dilution 4=1:100,000,000 • Dilution 5=1:1,000,000,000 • Dilution 6=1:10,000,000,000
Selected amounts of target template were amplified on the Light Cycler (Roche) in the presence of various amounts of Dye 122, Dye 109a and SYBR Green.
A master mixture was made up of: • 380 l of 2×PCR mix described in Example 33 • 15.2 l of 25 mM MgCl2 • 190.0 l of DEPC treated H2O • 7.6 l of 10 mg/ml BSA (New England Biolabs, Beverly, Mass.) • 7.6 l Taq polymease (Perkin Elmer)+7.6 l of TaqStart (Clontech)
2.0 l of target template (1:50,000 dilution of the antisense C amplicon)+2.0 l of various dye concentrations were added to 16 µl of Master mixture and amplified as described previously in Example 33 stopping after 29 cycles. Dye additions were from the 1:1000 dilution of SYBR Green, 1:30 of Dye 109a and 1:30 of Dye 122.
At the highest input level (Dil 2 1:1,000,000 dilution of amplicon) no evidence of amplification is seen in the sample without dye.

[1] = test system: 78 bp amplicon from the anti-sense C construct; experiment: Amplification of nucleic acids on the Light Cycler in the presence of dye (Example 33); assay type: biochemical
Description: A target template was amplified on the Light Cycler (Roche) in the presence of various amounts of Dye 109 from Example 14. As a control, various amounts of SYBR Green (Molecular Probes, Eugene, Oreg.) were also included. The template was a 1:500 dilution of a 78 bp amplicon made in a previous reaction from the anti-sense C construct described in Liu et al. 1997 (J. Virol. 71: 4079-4085). A 2×PCR mix was made up of 20 mM Tris pH 8.3, 50 mM KCl, 4 mM MgCl2, 0.4 mM dCTP, 0.4 mM dGTP, 0.4 mM dATP, 0.8 mM dUTP, […] and […].
The Forward Primer sequence is comprised of 20 nucleotides: 5′ […] 3′ (SEQ ID NO: 1). It is an artificial sequence comprising a fusion of human Ul and HIV sequences. Bases 1-7 (CATGATC) of the first sequence are derived from plasmid pHSD-4 and comprise sequences from the human Ul gene. Bases […] (GATCCGGATGGGAGGTG) of the second sequence are derived from a region of the BAL strain of HIV containing the Tat/Rev splice acceptor site.
The Reverse Primer sequence is comprised of 22 nucleotides: 5′[…] (SEQ ID NO: 2). It is an artificial sequence comprising a fusion of human Ul and HIV sequences. Bases 1-11 (GCACATCCGGA) of the first sequence are derived from plasmid pHSD-4 and comprise sequences from the human Ul gene. Bases […] (GATCCGGATGGGAGGTG) of the second sequence are derived from a region of the BAL strain of HIV containing the Tat/Rev splice acceptor site.
The 78 bp amplicon synthesized with Forward Primer (SEQ ID NO: 1) and Reverse Primer (SEQ ID NO: 2) has the following sequence: 5′ […] 3′ (SEQ ID NO: 3). It is an artificial sequence comprising a fusion of human Ul and HIV sequences. Bases 1-11 (GCACATCCGGA) and 68-78 (TCCGGATGTGC) are derived from plasmid pHSD-4 and comprise sequences from the human Ul gene. Bases […] are derived from a region of the BAL strain of HIV containing the Tat/Rev splice acceptor site.
A master mixture was made up of: • 350 µl of 2×PCR mix described above • 14 µl of 25 mM MgCl2 • 122.5 µl of DEPC treated H2O • 14 ul of 1 u/l ung (Epicentre) • 7 µl of 10 mg/ml BSA (New England Biolabs, Beverly, Mass.) • 7 l Taq polymease (Perkin Elmer)+7 µl of TaqStart (Clontech) • 2.5 µl of target template+2.0 l of various dilutions of dyes were added to 15.5 µl of Master mixture, incubated at 45° C. for 10 minutes and then amplified by: • 1) Melting • 2 minutes @ 95° C. • 2) Cycling • a) Denaturation step: 0 seconds @ 95° C. • b) Annealing step: 5 seconds @ 69° C. for first cycle; subsequent cycles were each reduced by 0.5° C. until 65° C. was reached and all annealing steps in further cycles were carried out at this temperature • c) Extension step: 5 seconds @ 72° C. • 3) After completion of 56 cycles, all samples were maintained at 4° C. until analyzed.
After the amplification reactions were finished, the samples were analyzed by gel electrophoresis. For SYBR Green, the recommended reaction concentration is 1:10,000. As such, the amplification products shown in lanes 5 and 6 using 2 l of […] dilution in a 20 l reaction (final=1:8,000) is approximately representative of the product from the standard procedure. For Dye 109, the reactions are listed in terms of dilutions of a stock of Dye 109 with an OD reading of 200 taken at 495 nm. […] However, when lower dilutions of the dyes were added there was no inhibition of the process.

[2] = 1:200 dilution of SYBR Green, lane 7

CCCN(CCCN(C)C)c1cc(/C=C2/Sc3ccccc3N2C)c2ccccc2[n+]1-c1ccccc1 [SYBR Green, reference compound]
amplification product (gel analysis, FIG. 5) (anti-sense C amplicon; Dil 2 (1:1,000,000) target input): faint but visible band
amplification product (gel analysis, FIG. 5) (anti-sense C amplicon; further dilutions of target): do not show any evidence of an amplification product
amplification (gel analysis, FIG. 1) ([1]; 1:20 dilution of SYBR Green, 56 cycles): strong inhibition of amplification
synthesis of non-target derived amplicons [1, 2]: elimination or suppression of the synthesis of non-target derived amplicons
synthesis of target derived amplicons compared to the reaction without any dye [1, 2]: enhancement of overall synthesis of target derived amplicons
